Results taken from patent publication US6159983A, “Method and composition for treatment of inflammatory bowel disease” (University of Florida, priority 1998, dated 2000).

Columns and labels:
ulcerative colitis = conditions: cited from earlier work
[1] = test system: acetic acid-induced colitis; experiment: Acetic acid-induced colitis in the rat (pre-treatment, intrarectal); format: in vivo, rat (Sprague-Dawley); conditions: for effectiveness against acetic acid-induced colitis: i.r., 650 μmol/kg, before acetic acid, rat
From the text: A typical model of IBD in acetic acid-induced colitis in the rat has been described by Krawisz et al in Amer. J. Proc. Gastro. Col. Rec. Surg., Vol. 31, pages 11-18 (1980); and by Sharon et al in Gastroenterology, Vol. 88, pages 55-63 (1985) and Vol. 86, pages 453-460 (1984). Acetic acid-induced colitis is characterized by the movement of inflammatory cells into the colon, with the number of such cells in the mucosa being measured by the activity of myeloperoxidase, a marker enzyme for these cells. Positive desirable activity is indicated by a reduction in the high levels of myeloperoxidase caused by acetic acid.
Typically, Sprague-Dawley rats from Charles River Laboratories, Portage, Michigan (either sex, weight approximately 250 g) are dosed with test compounds and controls. Thereafter, the rats are given an intracolonic enema of acetic acid which produces a severe inflammatory response in the colon of a healthy rat characterized by rectal bleeding, diarrhea, epithelial erosions and destructions of crypts and gland cells. Twenty-four hours later, the test and control animals are sacrificed and the distal ten centimeters of the colons are removed and opened longitudinally. The tissue lesions contained within the removed, opened section of the colons are scored.
After the systematic evaluation of the impact of various fasting times, use of vehicles, the time interval between pre-treatment and administration of the acetic acid and altering the concentration of acetic acid, the final protocol for the experiments is to fast the rats for 30 hours in hanging wire cages, anesthetize the animals with sodium pentobarbital, administer the test drug 1 cc intrarectally (i.r.) either as a suspension or a solution in water, and to give the acetic acid (7.5% in water) 1 cc i.r. 30 minutes later. The rats are sacrificed 24 hours later and the colons are removed and assessed for damage.

[2] = test system: acetic acid-induced colitis; experiment: Reversal studies: compound given 30 minutes after acetic acid; format: in vivo; conditions: given 30 minutes after 2.5% acetic acid; rat
[3] = Preliminary acute toxicity studies in mice; format: in vivo
[4] = Iron binding in a test tube
[5] = Iron chelation when given to rats orally or subcutaneously; format: in vivo; conditions: orally or subcutaneously (s.c.)
Crohn's disease = conditions: multiple controlled trials and a recent meta-analysis; cited from earlier work
[6] = patients treated long-term with 6MP or AZA for IBD; cited from earlier work

Nc1ccc(O)c(C(=O)O)c1 [mesalamine, 5-aminosalicylic acid]
effectiveness for the treatment of acute UC (ulcerative colitis): effective to some degree in some patients

CC(=O)N(O)CCCCCNC(=O)CCC(=O)N(O)CCCCCNC(=O)CCC(=O)N(O)CCCCCN [DFO, reference compound]
effectiveness against acetic acid-induced colitis [1]: ineffective

O=C(O)c1cc(/N=N/c2ccc(S(=O)(=O)Nc3ccccn3)cc2)ccc1O [sulfasalazine]
effectiveness for the treatment of acute UC (ulcerative colitis): effective to some degree in some patients

Cc1ccc(O)c(C2=NC(C(=O)O)CC2)c1 (centres unmarked) [2H-pyrrolecarboxylic acid, 3,4-dihydro-5-(2-hydroxy-5-methylphenyl)-2H-pyrrole-2-carboxylic acid]
dose response: prevention of severe lesions ([1]; 162.5 μmol/kg (41.5 mg/kg) at 1 cc i.r., rats): severe lesions being prevented in a majority of rats
head-to-head comparison with 5-ASA or its commercially available formulation (Rowasa) ([1]; 650 μmol/kg vs. 1742 mmol/kg (so in the source), FIGS. 7 and 8): far superior even at a much lower dose
damage to the colons compared with control rats ([1]; FIGS. 2-8): considerably less damage
damage in the colons of the rats, expanded experiments ([1]; expanded experiments): very little damage
damage in the colons of the test animals ([1]; i.r. at 650 μmol/kg (165 mg/kg N-methylhydroxamate or 166 mg/kg 2H-pyrrolecarboxylic acid), 30 minutes before acetic acid, FIGS. 2-8): very little damage
lesions compared with the control group [2]: less severe and less active
state of the lesions (resolution, histology) [2]: apparently resolving and with some lamina proprial fibrosis and considerable hyper-plasia of submucosal lymphoid tissue
deaths ([3]; i.p., at doses up to 1 g/kg): no deaths
acute toxicity ([3]; preliminary): virtually non-toxic
iron binding [4]: binds iron remarkably well
activity as an iron chelator [5]: inactive

Cn1cnc([N+](=O)[O-])c1Sc1ncnc2nc[nH]c12 [AZA, azathioprine]
efficacy in Crohn's disease (Crohn's disease): support the efficacy
use in ulcerative colitis (ulcerative colitis; several controlled trials): support the use
dose-related leukopenia, patients affected [6]: 2-5%

C[C@]1(C(=O)O)CSC(c2ncccc2O)=N1 [DFT, reference compound]
effectiveness against acetic acid-induced colitis [1]: ineffective

Sc1ncnc2nc[nH]c12 [6MP, 6-Mercaptopurine]
efficacy in Crohn's disease (Crohn's disease): support the efficacy
dose-related leukopenia, patients affected [6]: 2-5%
